Assays:
stratum corneum = test: Measurement of the thickness of the stratum corneum in Fuzzy rats; type: in vivo, rat; conditions: for Thickness of the stratum corneum (μm) / Thickness of the stratum corneum relative to the carrier: male Fuzzy rats, topical, 24 days after the treatment
Protocol: Male Fuzzy rats are separated into four batches each comprising five rats. A topical treatment is carried out on each batch by administering, respectively, a carrier acting as a control, a dose of 0.000001% of retinol, a dose of 0.1% of retinol and a dose of 0.3% of a compound according to the invention corresponding to Example 1.
24 days after the treatment, the rats are euthanized and a 10 μm section of skin is sampled in order to perform a biopsy. A 1M NaOH solution is added to each section in order to soften the stratum corneum. The photos under a microscope are taken in a time period of 2 minutes after the addition of the 1M NaOH solution.
The table below presents the results on the thickness of the stratum corneum for the various batches.

human CYP26B1 enzyme = biological target: T1, human CYP26B1 enzyme (Homo sapiens, UniProt Q9NR63); test: Cell test, HeLa cells overexpressing human CYP26B1, metabolism of radiolabelled retinoic acid (3H-RA); type: cell-based; conditions: 3 h incubation with 3H-RA, mean of two experiments
T1 construct: expressed in transfected cells; host or cells: HeLa cells
T1 sequence (Q9NR63 1-512): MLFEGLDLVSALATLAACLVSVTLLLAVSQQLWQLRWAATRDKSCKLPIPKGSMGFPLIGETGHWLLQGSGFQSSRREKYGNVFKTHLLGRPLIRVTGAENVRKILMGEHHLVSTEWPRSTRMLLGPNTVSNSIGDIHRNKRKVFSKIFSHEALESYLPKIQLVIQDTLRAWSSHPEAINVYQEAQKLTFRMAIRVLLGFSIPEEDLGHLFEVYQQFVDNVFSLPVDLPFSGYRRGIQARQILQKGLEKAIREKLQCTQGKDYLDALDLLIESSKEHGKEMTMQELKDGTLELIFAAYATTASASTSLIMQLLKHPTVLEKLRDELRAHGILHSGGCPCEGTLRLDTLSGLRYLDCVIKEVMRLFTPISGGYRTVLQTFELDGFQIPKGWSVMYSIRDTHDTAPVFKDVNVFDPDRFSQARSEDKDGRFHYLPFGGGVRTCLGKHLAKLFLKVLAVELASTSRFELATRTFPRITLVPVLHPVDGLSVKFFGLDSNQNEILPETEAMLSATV
Protocol: (§1) A cell test using HeLa cells overexpressing either the human CYP26A1 enzyme or the human CYP26B1 enzyme, similar to that described in White et al.(Proc Natl Acad Sci U S A. 2000 Jun 6; 97(12): 6403-8), was used. […] After the incubation time of 3 h, the reaction was stopped and an extraction phase was carried out in order to separate the aqueous and organic layers. The amount of radioactivity present in the aqueous layer was then measured as an indicator of the amount of RA which was metabolized.
A first experiment using 3 different concentrations of compounds according to the invention (0.1, 1 and 10 μM) was carried out in order to evaluate the inhibitory activity of the compounds. A second test was then carried out with a wide range of concentrations (0.01, 0.1, 0.5, 1, 5 and 10 μM). The results obtained during these two tests are similar.
The following table lists the mean of the AC50 values obtained over these two experiments.

human CYP26A1 enzyme = biological target: T2, human CYP26A1 enzyme (Homo sapiens, UniProt O43174); test: Cell test, HeLa cells overexpressing human CYP26A1, metabolism of radiolabelled retinoic acid (3H-RA); type: cell-based; conditions: for Isoform activity in words: CYP26A1 versus CYP26B1, HeLa cell test; for AC50: HeLa cells overexpressing human CYP26A1, 3 h incubation with 3H-RA, mean of two experiments; for CYP26B1/CYP26A1 (selectivity ratio of mean AC50): ratio of AC50 CYP26B1 to AC50 CYP26A1
T2 construct: expressed in transfected cells; host or cells: HeLa cells
T2 sequence (O43174 1-497): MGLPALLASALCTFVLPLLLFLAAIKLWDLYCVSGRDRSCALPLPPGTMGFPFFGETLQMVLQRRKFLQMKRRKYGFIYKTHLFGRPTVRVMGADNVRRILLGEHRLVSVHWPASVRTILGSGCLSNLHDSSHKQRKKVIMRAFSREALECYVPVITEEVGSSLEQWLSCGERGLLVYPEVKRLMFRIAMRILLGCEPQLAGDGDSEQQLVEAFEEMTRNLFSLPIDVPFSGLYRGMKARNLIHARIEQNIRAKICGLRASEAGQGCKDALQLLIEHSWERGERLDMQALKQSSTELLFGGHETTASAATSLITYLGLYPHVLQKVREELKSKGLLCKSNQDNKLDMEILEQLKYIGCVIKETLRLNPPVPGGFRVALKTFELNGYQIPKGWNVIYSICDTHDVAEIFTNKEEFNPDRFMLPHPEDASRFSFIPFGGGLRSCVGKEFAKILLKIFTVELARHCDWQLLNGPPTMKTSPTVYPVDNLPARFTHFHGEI
Protocol: as §1
A first experiment using 3 different concentrations of compounds according to the invention (0.1, 1 and 10 μM) was carried out in order to evaluate the inhibitory activity of the compounds. A second test was then carried out with a wide range of concentrations (0.01, 0.1, 0.5, 1, 5 and 10 μM).

CYP26B1 isoform = biological target: T3, CYP26B1 isoform (Homo sapiens, UniProt Q9NR63); conditions: background statement; cited from earlier work
T3 sequence (Q9NR63 1-512): T1 sequence (Q9NR63 1-512)

| AC50 (human CYP26B1 enzyme) | AC50 (human CYP26A1 enzyme) | CYP26B1/CYP26A1 (selectivity ratio of mean AC50) (human CYP26A1 enzyme) | SMILES | Thickness of the stratum corneum (μm) (stratum corneum; dose 0.000001%) | Thickness of the stratum corneum relative to the carrier (stratum corneum; dose 0.000001%) | Thickness of the stratum corneum (μm) (stratum corneum; dose 0.1%) | Thickness of the stratum corneum relative to the carrier (stratum corneum; dose 0.1%) | Isoform activity in words (human CYP26A1 enzyme) | Thickness of the stratum corneum (μm) (stratum corneum; dose 0.3%) | Thickness of the stratum corneum relative to the carrier (stratum corneum; dose 0.3%) | Photographs of the keratinous layer (FIGS. 2 and 3), result in words (stratum corneum; rats treated with 0.3% versus carrier) | Activity on the CYP26B1 isoform (CYP26B1 isoform) |
| --- | --- | --- | --- | --- | --- | --- | --- | --- | --- | --- | --- | --- |
| – | – | – | CC1=C(/C=C/C(C)=C/C=C/C(C)=C/CO)C(C)(C)CCC1 [Retinol] | 41.60 μm | 0.98 | 26.24 μm | 0.62 | – | – | – | – | – |
| 0.32 µM | – | – | Clc1cccc(C(c2ccc3[nH]cnc3c2)n2ccnc2)c1 (centres unmarked) [Liarozole] | – | – | – | – | more active on CYP26B1 than on CYP26A1 | – | – | – | – |
| 50.3 µM | 0.19 µM | 261.50 | CC1(C)CCC(C)(C)c2cc(S(=O)(=O)CCc3ccc(C(=O)O)cc3)ccc21 [Compound 1, 4-[2-(5,5,8,8-Tetramethyl-5,6,7,8-tetrahydronaphthalene-2-sulphonyl)ethyl]benzoic acid] | – | – | – | – | – | 24.07 μm | 0.57 | decrease in the thickness of the stratum corneum | – |
| 0.064 µM | 0.004 µM | 16.82 | CCC(CC)C(c1ccc(Nc2nc3ccccc3s2)cc1)n1cncn1 (centres unmarked) [Rambazole] | – | – | – | – | active on the inhibition of the activity of the two isoforms | – | – | – | about 62 nM |

Source: patent US9408793B2, “Selective compounds inhibiting CYP26A1 useful in cosmetic and pharmaceutical compositions” (GALDERMA RESEARCH & DEVELOPMENT, priority 2012, dated 2016)
